Measurements as given in patent US20200338039A1, “METHODS AND MATERIALS FOR ASSESSING BIOLOGICAL AGE AND SLOWING THE PROGRESS OF EXCESSIVE BIOLOGICAL AGING” (The Scripps Research Institute, priority 2017, published 2020).

Columns and labels:
mice, 85 weeks of age = test: Late-life fisetin diet in aged mice: lifespan, tissue function, histopathology; type: in vivo, mouse; settings: diet containing 500 ppm fisetin from 85 weeks of age
Method: At 85-weeks of age (>20 mth), male and female mice were administered a diet containing 500 ppm (500 mg/kg) fisetin or fed a control diet with no drug. n=8-9 mice per group. In the treatment group, median lifespan was increased 17% and maximum lifespan increased 12%. Log rank (Mantel-Cox) test. […] Levels of MCP-1 were measured in the serum of these mice by ELISA. n=5 mice per group. One-way ANOVA with Tukey's multiple comparison test. Values represented as the mean SEM, ***p<0.001, ****p<0.0001. Therefore, circulating levels of MCP-1 correlate with drug-induced improvements in health and lifespan (FIG. 12).

C57BL/6J mice = test: Composite lesion scores (geropathology grading, histology) in old mice on rapamycin diet; type: in vivo, mouse; settings: two year-old C57BL/6J mice; rapamycin diet 14 ppm females / 42 ppm males for two months; average
Excerpt: Two year-old C57BL/6J mice were fed a diet containing rapamycin (14 ppm for females or 42 ppm for males) or a control diet for two months. […] In addition, rapamycin attenuated composite lesion scores in kidneys (FIG. 7), liver, and lungs of these mice by an average of 40, 41, and 29 percent, respectively.
Two year old C57BL/6J mice were obtained from the NIA Rodent Colony and treated with encapsulated rapamycin (Rapamycin Holdings, San Antonio Tex.) at 14 ppm for females and 42 ppm for males, or control (encapsulated only) diet for 8 weeks. Mice were sacrificed at 26 months and serum collected preceding necropsy. Ercc1^−/Δ mice were treated with Dasatinib and Quercetin as described elsewhere (see, e.g., Zhu et al., 2015 Aging cell. 14(4):644-658). Briefly, Ercc1^−/Δ mice were treated weekly with a combination of Dasatinib (5 mg/kg) and Quercetin (50 mg/kg) starting at 4-6 weeks of age. Therapeutics were administered in 10% PEG400 by oral gavage. Litters with multiple Ercc1^−/Δ mice were used to enable comparison of sibling pairs that were treated with therapeutic vs vehicle only. Mice (n=5-6 per group) were sacrificed at 16 weeks and serum collected by cardiac puncture.
Mouse tissues were collected at necropsy and placed in 10% buffered formalin for 48 hours, transferred to 70% alcohol, and subsequently processed into paraffin blocks for sectioning and hematoxylin and eosin staining. Histology slides were validated for age-related lesions by a veterinary pathologist and scored for lesion severity to create a composite lesion score for age-related renal pathology in each animal (see, e.g., Ladiges 2016 Pathobiol Aging Age Relat Dis. 6:31478).

[1] = male and female mice, vs control diet

SMILES	age-related histopathology (mice, 85 weeks of age)	tissue function (mice, 85 weeks of age)	increase in maximum lifespan (mice, 85 weeks of age; [1])	increase in median lifespan (mice, 85 weeks of age; [1])	attenuation of composite lesion score, kidneys (C57BL/6J mice)	attenuation of composite lesion score, liver (C57BL/6J mice)	attenuation of composite lesion score, lungs (C57BL/6J mice)
O=c1c(O)c(-c2ccc(O)c(O)c2)oc2cc(O)ccc12 [fisetin]	decreased in multiple organs	improved	12%	17%			
CO[C@H]1C[C@@H]2CC[C@@H](C)[C@@](O)(O2)C(=O)C(=O)N2CCCC[C@H]2C(=O)O[C@H]([C@H](C)C[C@@H]2CC[C@@H](O)[C@H](OC)C2)CC(=O)[C@H](C)/C=C(\C)[C@@H](O)[C@@H](OC)C(=O)[C@H](C)C[C@H](C)/C=C/C=C/C=C/1C [rapamycin]					40%	41%	29%
